Broadly, the IC50 is the concentration that gives 50% inhibition. Lower therefore signals higher potency.

These results are taken from US8673889B2, “BLT2-mediated disease, BLT2 binding agent and the compound” (Ono Pharmaceutical Co., Ltd., priority 2004, dated 2014).

What all share (type): cell-based
Assay [1] deals with T1, BLT2 (Homo sapiens, UniProt Q9NPC1).
T1 sequence (Q9NPC1 1-358): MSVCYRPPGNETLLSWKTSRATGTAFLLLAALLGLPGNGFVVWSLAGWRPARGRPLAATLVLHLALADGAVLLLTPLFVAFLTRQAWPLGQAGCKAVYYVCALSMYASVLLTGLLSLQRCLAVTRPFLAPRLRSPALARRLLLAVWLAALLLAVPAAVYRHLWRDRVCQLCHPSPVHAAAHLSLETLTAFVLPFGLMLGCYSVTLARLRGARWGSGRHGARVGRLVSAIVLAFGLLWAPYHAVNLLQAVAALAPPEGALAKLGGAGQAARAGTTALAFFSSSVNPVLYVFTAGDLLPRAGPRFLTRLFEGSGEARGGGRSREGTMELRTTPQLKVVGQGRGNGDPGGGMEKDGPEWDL
Description: Evaluation of BLT2 agonistic activity by monitoring the variation of intracellular Ca2+ concentration. The note with it: classification of the compounds (1) to (46). Also on record: expressed in transfected cells.

The target of another assay is BLT1 (Homo sapiens, UniProt Q15722). Description: BLT1 antagonistic activity measured by the same way (intracellular Ca2+). The conditions noted are these: measured by the same way as BLT2. As for the experimental part: (§1) The receptor antagonist activity was evaluated by using human BLT2 gene-overexpressing Chinese Hamster Ovar (CHO) cells (see J. Exp. Med. Volume 192, Number 3 2000, and 421-.). BLT2-expressing cells were cultured in Ham 's F1 medium (GIBCO BRL and No. 11765-047) containing 10% FBS (fetal bovine serum), penicillin/streptomycin and blasticidin (5 μg/ml). First, to make the cells to take Fura2-AM (Dojindo and No. 348-05831), the cells were incubated in 5 μM Fura2-AM solution (Ham's F1 medium containing 10% FBS, 20 mM HEPES buffer (pH7.4) and 2.5 mM probenecid (Sigma and No. P-8761)) at 37° C. for 60 minutes. Then, the cells were washed once with Hanks solution containing 20 mM HEPES buffer (pH7.4) and 2.5 mM probenecid, and soaked in Hanks solution until assay. The plate was sat up on fluorescent drug screening system (Hamamatsu Photonics FDSS-2000) and measured without any stimulation for 30 seconds, to which the compound solution of the present invention was added. […] The compound of the present invention was dissolved to dimethylsulfoxide (DMSO) and added in order that the final concentration is […]. […] IC50 value is a concentration of the compound of the present invention in which the inhibition ratio is 50%. Also, BLT1 antagonistic activity was measured by the same way.

The target in assay [2] is T1, BLT2. Description: Evaluation of BLT2 antagonistic activity by monitoring the variation of intracellular Ca2+ concentration. Also on record: expressed in transfected cells; host or cells: CHO cells. As for the experimental part: as §1
Assay [3] has as its target T2, mBLT2 (Mus musculus, UniProt Q9JJL9).
T2 construct: mBLT2 ORF was amplified by PCR using a sense primer having BamHI restriction enzyme site; expressed in transfected cells
T2 sequence (Q9JJL9 1-360): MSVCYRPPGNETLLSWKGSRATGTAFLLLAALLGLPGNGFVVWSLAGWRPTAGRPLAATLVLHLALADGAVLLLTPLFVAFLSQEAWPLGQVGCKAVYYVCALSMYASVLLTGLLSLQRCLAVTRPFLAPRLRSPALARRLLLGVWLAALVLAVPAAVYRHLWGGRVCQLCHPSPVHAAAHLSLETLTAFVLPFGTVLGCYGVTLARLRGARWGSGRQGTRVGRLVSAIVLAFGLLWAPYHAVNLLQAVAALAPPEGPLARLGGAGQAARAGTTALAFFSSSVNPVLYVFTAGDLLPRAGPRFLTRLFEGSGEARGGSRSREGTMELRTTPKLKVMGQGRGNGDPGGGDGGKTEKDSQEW
Description: Measurement of intracellular Ca2+ concentration in mBLT2-expressing CHO cells. The conditions noted are these: FIG. 4, read-out: EC50 value, rise of the intracellular calcium concentration. An excerpt: mBLT2 ORF was amplified by PCR using a sense primer having BamHI restriction enzyme site (sense primer; 5′-[…]-3′ (SEQ ID NO.1)) and an antisense primer having EcoRI restriction enzyme site (antisense primer; 5′-[…]-3′ (SEQ ID NO.2)). The PCR product was digested with BamHI and EcoRI and inserted in expression plasmid (pcDNA3 Invitrogen). The inserted sequence was confirmed by the DNA sequence. Plasmid DNA ([…]) was transfected into CHO cells cultured in Ham's F-12 medium containing 10% fetal bovine serum and antibiotic (streptomycin (100 μg/mL) and penicillin (100 μg/L)) in cell culture plates (6 cm). The resistant strains were obtained by culturing for 2 weeks in the existence of antibiotic (G418 [Wako], 1 mg/mL). […]
mBLT2-expressing CHO cells prepared by Biological Example 3 were cultured in modified Hepes-Tyrode's BSA buffer (Hepes-NaOH (25 mM, pH7.4), NaCl (140 mM), KCl (2.7 mM), CaCl2(10 nM), NaHCO3(12 mM), D-Glucose (5.6 mM), NaH2PO4(0.37 mM), MgCl2(0.49 mM), cremophour (0.01%), fatty acid-free BSA (fraction V, 0.1w/v %)) containing fluorochrome (Fura-2 AM [Dojin], 3 μm) at 37° C. for 2 hours to make to take fluorochrome. […] Dimethylsulfoxide (DMSO) solution (5 μL) containing ligand was added to the cell suspension, of which the intracellular calcium concentration was monitored (excitation wavelength 340 nm and 380 nm and fluorescent wave-length 510 nm).

For assay [4], the target named is T2, mBLT2. Description: ERK phosphorylation (1) in mBLT2-expressing CHO cells. The conditions noted are these: ligand 5 minutes, FIG. 5. The text has this:
mBLT2 ORF was amplified by PCR using a sense primer having BamHI restriction enzyme site (sense primer; 5′-[…]-3′ (SEQ ID NO.1)) and an antisense primer having EcoRI restriction enzyme site (antisense primer; 5′-[…]-3′ (SEQ ID NO.2)). The PCR product was digested with BamHI and EcoRI and inserted in expression plasmid (pcDNA3 Invitrogen). The inserted sequence was confirmed by the DNA sequence. Plasmid DNA ([…]) was transfected into CHO cells cultured in Ham's F-12 medium containing 10% fetal bovine serum and antibiotic (streptomycin (100 μg/mL) and penicillin (100 μg/L)) in cell culture plates (6 cm). The resistant strains were obtained by culturing for 2 weeks in the existence of antibiotic (G418 [Wako], 1 mg/mL). The stable expressing strains were obtained by culturing 19 obtained resistant strains with limiting dilution method.

For another assay, the target named is T3, mBLT1 (Mus musculus, UniProt O88855).
T3 construct: expressed in transfected cells; host or cells: CHO cells
The assay is described as follows: ERK phosphorylation (1) in mBLT1-expressing CHO cells. The note with it: ligand 5 minutes, FIG. 5.

Assay [5] concerns mouse primary culture keratinocytes. The assay is described as follows: ERK phosphorylation (2) in mouse primary culture keratinocytes. The note with it: FIG. 7.

Sequence of BLT1 (Q15722 whole entry, species assumed): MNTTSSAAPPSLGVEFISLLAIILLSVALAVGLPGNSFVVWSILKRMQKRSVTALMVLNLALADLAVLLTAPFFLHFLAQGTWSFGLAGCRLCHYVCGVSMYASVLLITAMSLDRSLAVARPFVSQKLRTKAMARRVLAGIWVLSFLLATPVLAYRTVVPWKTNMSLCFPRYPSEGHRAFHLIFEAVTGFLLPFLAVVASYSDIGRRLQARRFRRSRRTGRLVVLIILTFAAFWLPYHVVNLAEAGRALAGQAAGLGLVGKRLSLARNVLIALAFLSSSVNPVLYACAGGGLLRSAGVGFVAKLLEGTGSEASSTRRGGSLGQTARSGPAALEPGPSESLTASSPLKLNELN
T3 sequence (O88855 whole entry): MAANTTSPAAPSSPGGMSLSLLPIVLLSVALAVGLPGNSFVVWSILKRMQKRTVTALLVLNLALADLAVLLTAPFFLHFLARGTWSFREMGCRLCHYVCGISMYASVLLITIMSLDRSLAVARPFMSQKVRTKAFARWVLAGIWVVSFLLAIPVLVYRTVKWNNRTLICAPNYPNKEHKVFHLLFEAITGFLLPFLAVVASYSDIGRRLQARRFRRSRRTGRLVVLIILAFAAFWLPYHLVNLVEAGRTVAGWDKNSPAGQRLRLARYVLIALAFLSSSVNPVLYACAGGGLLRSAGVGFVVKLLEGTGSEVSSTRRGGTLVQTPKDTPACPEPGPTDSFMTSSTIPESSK

As to `CCCCN(Cc1ccc(-c2ccccc2-c2nnn[nH]2)cc1)C(=O)NCCc1ccccc1` [(5), N-butyl-N′-(2-phenylethyl)-N-{[2′-(1H-tetrazol-5-yl)biphenyl-4-yl]methyl}urea], the BLT2 agonistic activity entry on BLT2 [1] is “BLT2 agonistic activity”.
Same read-out and setting: the same measure for `CCCCN(Cc1ccc(-c2ccccc2-c2nnn[nH]2)cc1)C(=O)NC(C)C` [(7), N-butyl-N′-isopropyl-N-{[2′-(1H-tetrazol-5-yl)biphenyl-4-yl]methyl}urea]: “BLT2 agonistic activity”; for `CCCCN(Cc1ccc(-c2ccccc2-c2nnn[nH]2)cc1)C(=O)NCCc1ccc(O)cc1` [(9), N-butyl-N′-[2-(4-hydroxyphenyl)ethyl]-N-{[2′-(1H-tetrazol-5-yl)biphenyl-4-yl]methyl}urea]: “BLT2 agonistic activity”; for `CCCCN(Cc1ccc(-c2ccccc2-c2nnn[nH]2)cc1)C(=S)NCC(=O)OC` [(10), methyl N-[(butyl {[2′-(1H-tetrazol-5-yl)biphenyl-4-yl]methyl}amino)carbonothioyl]glycinate]: “BLT2 agonistic activity”.
Still for that read-out and setting: the same measure for `CCCCNC(=O)N(CCCC)Cc1ccc(-c2ccccc2-c2nnn[nH]2)cc1` [(11), N,N′-dibutyl-N-{[2′-(1H-tetrazol-5-yl)biphenyl-4-yl]methyl}urea]: “BLT2 agonistic activity”; for `CCCCN(Cc1ccc(-c2ccccc2-c2nnn[nH]2)cc1)C(=O)NC1CCCCC1` [(12), N-butyl-N′-cyclohexyl-N-{[2′-(1H-tetrazol-5-yl)biphenyl-4-yl]methyl}urea]: “BLT2 agonistic activity”.
Turning to `CCCCN(Cc1ccc(-c2ccccc2-c2nnn[nH]2)cc1)C(=O)Nc1ccccc1` [(13), N-butyl-N′-phenyl-N-{[2′-(1H-tetrazol-5-yl)biphenyl-4-yl]methyl}urea], the BLT2 agonistic activity result at BLT2 [1] is recorded as “BLT2 agonistic activity”.
Same read-out and setting: the same measure for `CCCCN(Cc1ccc(-c2ccccc2-c2nnn[nH]2)cc1)C(=O)Nc1cccc(OC)c1` [(16), N-butyl-N′-(3-methoxyphenyl)-N-{[2′-(1H-tetrazol-5-yl)biphenyl-4-yl]methyl}urea]: “BLT2 agonistic activity”.
Regarding `CCCCN(Cc1ccc(-c2ccccc2-c2nnn[nH]2)cc1)C(=O)Nc1ccc(OC)cc1` [(17), N-butyl-N′-(4-methoxyphenyl)-N-{[2′-(1H-tetrazol-5-yl)biphenyl-4-yl]methyl}urea], on BLT2 [1], the BLT2 agonistic activity result is “BLT2 agonistic activity”.
Still for that read-out and setting: the same measure for `CCCCN(Cc1ccc(-c2ccccc2-c2nnn[nH]2)cc1)C(=O)Nc1cccc(C(=O)OCC)c1` [(19)]: “BLT2 agonistic activity”.
Still for that read-out and setting: the same measure for `CCCCN(Cc1ccc(-c2ccccc2-c2nnn[nH]2)cc1)C(=O)Nc1ccc(C)cc1` [(20), N-butyl-N′-(4-methylphenyl)-N-{[2′-(1H-tetrazol-5-yl)biphenyl-4-yl]methyl}urea]: “BLT2 agonistic activity”; for `CCCCN(Cc1ccc(-c2ccccc2-c2nnn[nH]2)cc1)C(=O)N[C@@H](C)c1ccccc1` [(21), N-butyl-N′-[(1S)-1-phenylethyl]-N-{[2′-(1H-tetrazol-5-yl)biphenyl-4-yl]methyl}urea]: “BLT2 agonistic activity”.
Still for that read-out and setting: the same measure for `CCCCN(Cc1ccc(-c2ccccc2-c2nnn[nH]2)cc1)C(=O)NCc1ccccc1` [(22), N′-benzyl-N-butyl-N-{[2′-(1H-tetrazol-5-yl)biphenyl-4-yl]methyl}urea]: “BLT2 agonistic activity”; for `CCCCN(Cc1ccc(-c2ccccc2-c2nnn[nH]2)cc1)C(=O)Nc1ccc(F)c(F)c1` [(30), N-butyl-N′-(3,4-difluorophenyl)-N-{[2′-(1H-tetrazol-5-yl)biphenyl-4-yl]methyl}urea]: “BLT2 agonistic activity”; for `CCCCN(Cc1ccc(-c2ccccc2-c2nnn[nH]2)cc1)C(=O)NC(=O)OCC` [(34), ethyl[(butyl{[2′-(1H-tetrazol-5-yl)biphenyl-4-yl]methyl}amino)carbonyl]carbamate]: “BLT2 agonistic activity”.
As for `CCCCN(Cc1ccc(-c2ccccc2-c2nnn[nH]2)cc1)C(=O)Nc1ccccc1O` [(39), N-butyl-N′-(2-hydroxyphenyl)-N-{[2′-(1H-tetrazol-5-yl)biphenyl-4-yl]methyl}urea], the BLT2 agonistic activity entry on BLT2 [1] is reported as “BLT2 agonistic activity”.
Same read-out and setting: the same measure for `CCCCN(Cc1ccc(-c2ccccc2-c2nnn[nH]2)cc1)C(=O)Nc1sc2c(c1C(=O)O)CCCC2` [(40), 2-{[(butyl{[2′-(1H-tetrazol-5-yl)biphenyl-4-yl]methyl}amino)carbonyl]amino}-4,5,6,7-tetrahydro-1-benzothiophen-3-carboxylic acid]: “BLT2 agonistic activity”; for `CCCCN(Cc1ccc(-c2ccccc2-c2nnn[nH]2)cc1)C(=O)NCC1CCCO1` (stereo not shown) [(43), N-butyl-N′-(tetrahydrofuran-2-ylmethyl)-N-{[2′-(1H-tetrazol-5-yl)biphenyl-4-yl]methyl}urea]: “BLT2 agonistic activity”; for `CCCCN(Cc1ccc(-c2ccccc2-c2nnn[nH]2)cc1)C(=O)NCCN1CCOCC1` [(45), N-butyl-N′-(2-morpholin-4-ylethyl)-N-{[2′-(1H-tetrazol-5-yl)biphenyl-4-yl]methyl}urea]: “BLT2 agonistic activity”.
`O=C([O-])c1ccc(-c2cccc(CN(CCCc3ccccc3)C(=O)CCc3ccccc3)c2)cc1.[Na+]` [Example 1(32), sodium 3′-{[(3-phenylpropanoyl)(3-phenylpropyl)amino]methyl}-1,1′-biphenyl-4-carboxylate]: the BLT1 antagonistic activity result on BLT1 is “did not have BLT1 antagonistic activity”. This molecule also yielded an IC50 on BLT2 [2] of 1800 nM.
Turning to `CCCCC/C=C\C[C@@H](O)/C=C/C=C/C=C\[C@@H](O)CCCC(=O)O` [LTB4, 5-[S], 12-[R]-dihydroxy-6,14-cis-8,10-trans-eicosatetraenoic acid, reference compound], on mBLT2 [3], the EC50 was determined as 121 nM. Besides, the ERK phosphorylation result is “induced” at mBLT2 [4], “induced” at mBLT1 and “induced ERK phosphorylation” in assay [5].
